Experimental data published in the NIST ThermoML archive (doi:10.1016/j.tca.2006.10.025).
± gives the expanded uncertainty stated by the source.

What was measured:
[1] = molar heat capacity at constant pressure; xn = mol fraction of the nth substance listed; conditions: 303.15 K, 101 kPa, Liquid, Small sample (50 mg) DSC
[2] = excess molar enthalpy (molar enthalpy of mixing); xn = mol fraction of the nth substance listed; conditions: 303.15 K, 101 kPa, Liquid, Flow calorimetry
[3] = molar heat capacity at constant pressure; conditions: 101.33 kPa, Liquid, Small sample (50 mg) DSC
[4] = 303.15 K; 101.33 kPa; Liquid; Vibrating tube method

C[S+](C)[O-] [dimethyl sulfoxide] + CO
Conditions	excess molar enthalpy [kcal/mol]	molar heat capacity at constant pressure [J/K/mol]
[1], x1 = 0.0308	–	84 ± 1.3
[1], x1 = 0.061	–	85.8 ± 1.3
[1], x1 = 0.1103	–	88.3 ± 1.4
[1], x1 = 0.197	–	93.9 ± 1.5
[1], x1 = 0.2818	–	97.8 ± 1.5
[1], x1 = 0.3571	–	102.3 ± 1.6
[1], x1 = 0.4676	–	109.7 ± 1.7
[1], x1 = 0.5886	–	116.1 ± 1.8
[1], x1 = 0.6833	–	124.6 ± 1.9
[1], x1 = 0.8398	–	137.5 ± 2.1
[1], x1 = 0.9068	–	142.5 ± 2.2
[1], x1 = 0.923	–	144.6 ± 2.2
[2], x1 = 0.0176	0.00191 ± 0.000239	–
[2], x1 = 0.0233	0.00215 ± 0.000239	–
[2], x1 = 0.0455	0.000717 ± 0.000239	–
[2], x1 = 0.0667	-0.00263 ± 0.000239	–
[2], x1 = 0.087	-0.00765 ± 0.000478	–
[2], x1 = 0.1251	-0.0194 ± 0.000478	–
[2], x1 = 0.1601	-0.0318 ± 0.000717	–
[2], x1 = 0.2223	-0.0543 ± 0.000956	–
[2], x1 = 0.276	-0.0712 ± 0.000956	–
[2], x1 = 0.3639	-0.0908 ± 0.0012	–
[2], x1 = 0.4619	-0.102 ± 0.00143	–
[2], x1 = 0.5336	-0.103 ± 0.00143	–
[2], x1 = 0.6318	-0.0985 ± 0.00143	–
[2], x1 = 0.6959	-0.0891 ± 0.0012	–
[2], x1 = 0.7744	-0.0758 ± 0.000956	–
[2], x1 = 0.8207	-0.0605 ± 0.000956	–
[2], x1 = 0.8728	-0.0442 ± 0.000717	–
[2], x1 = 0.9321	-0.0232 ± 0.000478	–

CCO [ethanol]
[3]
Conditions	molar heat capacity at constant pressure [J/K/mol]
288.15 K	108.8 ± 1.7
293.15 K	111 ± 1.7
298.15 K	113.5 ± 1.8
303.15 K	115.7 ± 1.8
308.15 K	118.6 ± 1.8
313.15 K	121.6 ± 1.9
318.15 K	125.1 ± 1.9
323.15 K	128.2 ± 2

Conditions	mass density [kg/m3]
[4]	780.79 ± 0.16

CCCCCCO [hexan-1-ol]
[3]
Conditions	molar heat capacity at constant pressure [J/K/mol]
288.15 K	231.6 ± 3.6
293.15 K	237.5 ± 3.7
298.15 K	241.3 ± 3.7
303.15 K	246 ± 3.8
308.15 K	251 ± 3.9
313.15 K	256.2 ± 4
318.15 K	262.5 ± 4.1
323.15 K	268.9 ± 4.2

Conditions	mass density [kg/m3]
[4]	811.39 ± 0.31

CCCCCCO [hexan-1-ol] + C[S+](C)[O-]
Conditions	excess molar enthalpy [kcal/mol]	molar heat capacity at constant pressure [J/K/mol]
[1], x2 = 0.1102	–	239.9 ± 3.7
[1], x2 = 0.1949	–	231.7 ± 3.6
[1], x2 = 0.2888	–	222.5 ± 3.4
[1], x2 = 0.3759	–	216.5 ± 3.4
[1], x2 = 0.4388	–	211.5 ± 3.3
[1], x2 = 0.535	–	199.2 ± 3.1
[1], x2 = 0.5365	–	199.4 ± 3.1
[1], x2 = 0.6311	–	190.4 ± 3
[1], x2 = 0.7339	–	181.8 ± 2.8
[1], x2 = 0.8062	–	171 ± 2.6
[1], x2 = 0.8704	–	164.7 ± 2.6
[1], x2 = 0.9359	–	158.8 ± 2.5
[2], x2 = 0.0682	0.0863 ± 0.00167	–
[2], x2 = 0.1277	0.153 ± 0.00215	–
[2], x2 = 0.1801	0.202 ± 0.00263	–
[2], x2 = 0.2265	0.241 ± 0.00311	–
[2], x2 = 0.3053	0.286 ± 0.00359	–
[2], x2 = 0.3694	0.31 ± 0.00382	–
[2], x2 = 0.4677	0.325 ± 0.00406	–
[2], x2 = 0.5394	0.326 ± 0.00406	–
[2], x2 = 0.6374	0.307 ± 0.00382	–
[2], x2 = 0.7251	0.278 ± 0.00359	–
[2], x2 = 0.7786	0.248 ± 0.00311	–
[2], x2 = 0.8406	0.207 ± 0.00263	–
[2], x2 = 0.8755	0.178 ± 0.00239	–
[2], x2 = 0.9134	0.134 ± 0.00215	–
[2], x2 = 0.9336	0.109 ± 0.00191	–
[2], x2 = 0.9547	0.0791 ± 0.00191	–
[2], x2 = 0.9768	0.0433 ± 0.00167	–

CO [methanol]
[3]
Conditions	molar heat capacity at constant pressure [J/K/mol]
288.15 K	78.1 ± 1.2
293.15 K	79.3 ± 1.2
298.15 K	81 ± 1.3
303.15 K	82.2 ± 1.3
308.15 K	83.4 ± 1.3
313.15 K	85.6 ± 1.3
318.15 K	87.5 ± 1.4
323.15 K	89.5 ± 1.4

Conditions	mass density [kg/m3]
[4]	781.81 ± 0.16

CCCCCCCCO [octan-1-ol]
[3]
Conditions	molar heat capacity at constant pressure [J/K/mol]
288.15 K	294.2 ± 4.6
293.15 K	300.3 ± 4.7
298.15 K	304.4 ± 4.7
303.15 K	309.2 ± 4.8
308.15 K	314.4 ± 4.9
313.15 K	319.5 ± 5
318.15 K	326.2 ± 5.1
323.15 K	332.7 ± 5.2

Conditions	mass density [kg/m3]
[4]	818.24 ± 0.18

CCCCCCCCO [octan-1-ol] + C[S+](C)[O-]
Conditions	excess molar enthalpy [kcal/mol]	molar heat capacity at constant pressure [J/K/mol]
[1], x2 = 0.0953	–	296.5 ± 4.6
[1], x2 = 0.1847	–	284.2 ± 4.4
[1], x2 = 0.3137	–	264.7 ± 4.1
[1], x2 = 0.3478	–	256.2 ± 4
[1], x2 = 0.4629	–	241.9 ± 3.7
[1], x2 = 0.5855	–	221.6 ± 3.4
[1], x2 = 0.6299	–	215.1 ± 3.3
[1], x2 = 0.7302	–	200.6 ± 3.1
[1], x2 = 0.7656	–	193.2 ± 3
[1], x2 = 0.842	–	182.1 ± 2.8
[1], x2 = 0.8956	–	173.1 ± 2.7
[1], x2 = 0.9603	–	162.4 ± 2.5
[2], x2 = 0.0847	0.112 ± 0.00191	–
[2], x2 = 0.1562	0.195 ± 0.00263	–
[2], x2 = 0.2173	0.257 ± 0.00335	–
[2], x2 = 0.2702	0.29 ± 0.00359	–
[2], x2 = 0.3571	0.331 ± 0.00406	–
[2], x2 = 0.4254	0.35 ± 0.0043	–
[2], x2 = 0.5262	0.354 ± 0.00454	–
[2], x2 = 0.5968	0.351 ± 0.0043	–
[2], x2 = 0.6896	0.332 ± 0.00406	–
[2], x2 = 0.7692	0.304 ± 0.00382	–
[2], x2 = 0.8163	0.273 ± 0.00359	–
[2], x2 = 0.8696	0.228 ± 0.00311	–
[2], x2 = 0.8988	0.195 ± 0.00287	–
[2], x2 = 0.9302	0.15 ± 0.00239	–
[2], x2 = 0.9467	0.121 ± 0.00239	–
[2], x2 = 0.9638	0.0868 ± 0.00239	–
[2], x2 = 0.9816	0.0468 ± 0.00239	–

CCCO [propan-1-ol]
[3]
Conditions	molar heat capacity at constant pressure [J/K/mol]
288.15 K	139 ± 2.2
293.15 K	142.3 ± 2.2
298.15 K	144.9 ± 2.2
303.15 K	148.3 ± 2.3
308.15 K	151 ± 2.3
313.15 K	153.7 ± 2.4
318.15 K	157.1 ± 2.4
323.15 K	160.1 ± 2.5

Conditions	mass density [kg/m3]
[4]	795.48 ± 0.15
